Laboratory results published in ChEMBL document CHEMBL4725427, “Synthesis and SAR Studies of 1H-Pyrrolo[2,3-b]pyridine-2-carboxamides as Phosphodiesterase 4B (PDE4B) Inhibitors” (ACS Med Chem Lett, 2020).

Columns and labels:
[1] = Inhibition of recombinant human N-terminal GST-tagged PDE4A1A (1 to 647 residues) expressed in baculovirus infected Sf9 cells at 10 uM by radioligand assay relative to control
[2] = target: Kappa-type opioid receptor (Homo sapiens) (UniProt P41145); test: Inhibition of KOR (unknown origin) relative to control; settings: concentration not given here
[3] = target: Histamine H2 receptor (Homo sapiens) (UniProt P25021); test: Inhibition of histamine H2 receptor (unknown origin) relative to control; settings: concentration not given here
[4] = Protein binding in human plasma assessed as unbound fraction; type: ADME, cell-free
[5] = target: 3',5'-cyclic-AMP phosphodiesterase 4C (Homo sapiens) (UniProt Q08493); test: Inhibition of recombinant human N-terminal GST-tagged PDE4C1 expressed in baculovirus infected Sf9 cells at 10 uM by radioligand assay relative to control
[6] = Metabolic stability in mouse liver microsomes assessed as intrinsic clearance; type: ADME, Microsome; settings: read-out: CLH
[7] = target: 5-hydroxytryptamine receptor 1E (Homo sapiens) (UniProt P28566); test: Inhibition of 5HT1E (unknown origin) relative to control; settings: concentration not given here
[8] = target: Alpha-2B adrenergic receptor (Homo sapiens) (UniProt P18089); test: Inhibition of adrenoceptor alpha 2B (unknown origin) relative to control; settings: concentration not given here
[9] = target: 5-hydroxytryptamine receptor 1B (Homo sapiens) (UniProt P28222); test: Inhibition of 5HT1B (unknown origin) relative to control; settings: concentration not given here
[10] = target: High affinity cAMP-specific and IBMX-insensitive 3',5'-cyclic phosphodiesterase 8A (Homo sapiens) (UniProt O60658); test: Inhibition of recombinant human N-terminal GST-tagged PDE8A1 expressed in baculovirus infected Sf9 cells at 10 uM by radioligand assay relative to control
[11] = target: Dual specificity calcium/calmodulin-dependent 3',5'-cyclic nucleotide phosphodiesterase 1A (Homo sapiens) (UniProt P54750); test: Inhibition of recombinant human N-terminal GST-tagged PDE1A1 expressed in baculovirus infected Sf9 cells at 10 uM by radioligand assay relative to control
[12] = target: Delta-type opioid receptor (Homo sapiens) (UniProt P41143); test: Inhibition of DOR receptor (unknown origin) relative to control; settings: concentration not given here
[13] = target: 3',5'-cyclic-AMP phosphodiesterase 4B (Homo sapiens, UniProt Q07343); test: Inhibition of recombinant human C-terminal His-tagged N-terminal GST-tagged PDE4B2 expressed in baculovirus infected Sf9 cells by radioligand binding assay; type: cell-based
[14] = target: Cone cGMP-specific 3',5'-cyclic phosphodiesterase subunit alpha' (Homo sapiens) (UniProt P51160); test: Inhibition of recombinant human N-terminal GST-tagged PDE6C expressed in baculovirus infected Sf9 cells at 10 uM by radioligand assay relative to control
[15] = target: 5-hydroxytryptamine receptor 5A (Homo sapiens) (UniProt P47898); test: Inhibition of 5HT5A (unknown origin) relative to control; settings: concentration not given here
[16] = target: cGMP-inhibited 3',5'-cyclic phosphodiesterase 3A (Homo sapiens) (UniProt Q14432); test: Inhibition of recombinant human N-terminal His-tagged PDE3A (669 to 1141 end residues) expressed in baculovirus infected Sf9 cells at 10 uM by radioligand assay relative to control
[17] = target: Sodium-dependent dopamine transporter (Homo sapiens) (UniProt Q01959); test: Inhibition of DAT receptor (unknown origin) relative to control; settings: concentration not given here
[18] = target: Alpha-1A adrenergic receptor (Homo sapiens) (UniProt P35348); test: Inhibition of adrenoceptor alpha 1A (unknown origin) relative to control; settings: concentration not given here
[19] = target: Histamine H3 receptor (Homo sapiens) (UniProt Q9Y5N1); test: Inhibition of histamine H3 receptor (unknown origin) relative to control; settings: concentration not given here
[20] = target: D(1B) dopamine receptor (Homo sapiens) (UniProt P21918); test: Inhibition of D5 (unknown origin) relative to control; settings: concentration not given here
[21] = target: cGMP-dependent 3',5'-cyclic phosphodiesterase (Homo sapiens) (UniProt O00408); test: Inhibition of recombinant human N-terminal FLAG-tagged PDE2A1 (2 to 941 residues) expressed in baculovirus infected Sf9 cells at 10 uM by radioligand assay relative to control
[22] = target: cGMP-inhibited 3',5'-cyclic phosphodiesterase 3B (Homo sapiens) (UniProt Q13370); test: Inhibition of recombinant human N-terminal His-tagged PDE3B (592 to end residues) expressed in baculovirus infected Sf9 cells at 10 uM by radioligand assay relative to control
[23] = Effect on TNFalpha production in C57BL/6 mouse bone marrow derived Macrophage at 1 to 10 uM incubated for 30 mins by ELISA; settings: 0.5 h
[24] = target: Dual 3',5'-cyclic-AMP and -GMP phosphodiesterase 11A (Homo sapiens) (UniProt Q9HCR9); test: Inhibition of recombinant human N-terminal GST-tagged PDE11A4 expressed in baculovirus infected Sf9 cells at 10 uM by radioligand assay relative to control
[25] = target: Beta-2 adrenergic receptor (Homo sapiens) (UniProt P07550); test: Inhibition of adrenoceptor beta2 (unknown origin) relative to control; settings: concentration not given here

Chain of 5-hydroxytryptamine receptor 5A (Homo sapiens) (P47898 whole entry): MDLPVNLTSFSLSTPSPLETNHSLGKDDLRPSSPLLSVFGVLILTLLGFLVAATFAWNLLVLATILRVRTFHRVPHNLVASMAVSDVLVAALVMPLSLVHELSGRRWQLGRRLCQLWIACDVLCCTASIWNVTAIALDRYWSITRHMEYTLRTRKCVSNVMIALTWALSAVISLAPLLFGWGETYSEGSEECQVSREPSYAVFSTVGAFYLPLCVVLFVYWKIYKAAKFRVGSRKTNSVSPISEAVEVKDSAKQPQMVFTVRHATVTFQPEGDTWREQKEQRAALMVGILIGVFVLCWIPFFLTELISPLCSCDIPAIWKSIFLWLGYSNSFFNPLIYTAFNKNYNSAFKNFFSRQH
Chain of D(1B) dopamine receptor (Homo sapiens) (P21918 whole entry, the tested form may be a part): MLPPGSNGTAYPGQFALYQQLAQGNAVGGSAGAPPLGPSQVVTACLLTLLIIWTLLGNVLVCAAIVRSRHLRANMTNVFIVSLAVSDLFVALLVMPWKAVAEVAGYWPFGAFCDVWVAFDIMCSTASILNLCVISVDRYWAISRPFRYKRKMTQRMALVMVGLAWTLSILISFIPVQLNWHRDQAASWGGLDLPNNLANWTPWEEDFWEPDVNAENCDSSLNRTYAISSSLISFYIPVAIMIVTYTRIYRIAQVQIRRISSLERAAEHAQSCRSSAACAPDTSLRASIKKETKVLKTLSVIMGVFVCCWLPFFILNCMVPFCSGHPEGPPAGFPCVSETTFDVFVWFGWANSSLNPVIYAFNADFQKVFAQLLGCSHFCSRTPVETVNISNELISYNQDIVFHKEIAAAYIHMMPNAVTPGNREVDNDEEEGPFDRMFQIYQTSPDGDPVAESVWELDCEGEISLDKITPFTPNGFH
Chain of Histamine H3 receptor (Homo sapiens) (Q9Y5N1 whole entry): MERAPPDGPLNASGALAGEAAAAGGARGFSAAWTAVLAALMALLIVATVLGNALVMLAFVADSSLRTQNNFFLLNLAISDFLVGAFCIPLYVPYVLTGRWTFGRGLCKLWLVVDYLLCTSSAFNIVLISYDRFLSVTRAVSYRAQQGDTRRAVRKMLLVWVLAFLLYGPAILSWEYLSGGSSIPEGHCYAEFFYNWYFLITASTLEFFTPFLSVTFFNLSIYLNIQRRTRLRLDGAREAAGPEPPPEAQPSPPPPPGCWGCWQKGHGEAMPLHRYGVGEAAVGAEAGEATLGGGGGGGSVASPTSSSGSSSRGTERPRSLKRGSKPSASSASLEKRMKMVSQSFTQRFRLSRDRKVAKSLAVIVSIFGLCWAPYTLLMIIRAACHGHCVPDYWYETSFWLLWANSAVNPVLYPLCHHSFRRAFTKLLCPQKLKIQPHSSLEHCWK
Chain of High affinity cAMP-specific and IBMX-insensitive 3',5'-cyclic phosphodiesterase 8A (Homo sapiens) (O60658 whole entry): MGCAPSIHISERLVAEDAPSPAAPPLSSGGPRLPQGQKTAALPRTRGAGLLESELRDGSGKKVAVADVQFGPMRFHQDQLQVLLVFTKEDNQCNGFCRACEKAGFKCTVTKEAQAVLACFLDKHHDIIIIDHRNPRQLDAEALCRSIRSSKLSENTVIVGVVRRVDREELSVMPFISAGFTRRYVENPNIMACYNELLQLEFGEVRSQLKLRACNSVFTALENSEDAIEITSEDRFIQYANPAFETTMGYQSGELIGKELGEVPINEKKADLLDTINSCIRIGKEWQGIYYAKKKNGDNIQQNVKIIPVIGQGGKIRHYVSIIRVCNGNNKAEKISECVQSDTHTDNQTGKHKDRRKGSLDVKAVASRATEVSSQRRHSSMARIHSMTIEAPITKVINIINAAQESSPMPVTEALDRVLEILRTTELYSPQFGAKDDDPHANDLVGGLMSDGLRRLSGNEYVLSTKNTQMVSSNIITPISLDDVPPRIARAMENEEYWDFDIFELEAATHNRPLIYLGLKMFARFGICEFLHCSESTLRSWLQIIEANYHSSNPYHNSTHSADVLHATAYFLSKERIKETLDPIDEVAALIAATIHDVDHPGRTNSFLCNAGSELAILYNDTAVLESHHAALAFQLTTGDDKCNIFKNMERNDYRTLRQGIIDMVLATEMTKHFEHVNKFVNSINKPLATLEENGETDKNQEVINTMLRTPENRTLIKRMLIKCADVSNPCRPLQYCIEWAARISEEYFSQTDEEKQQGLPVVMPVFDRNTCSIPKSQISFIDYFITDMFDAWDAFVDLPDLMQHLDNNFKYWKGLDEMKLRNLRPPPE
Chain of Dual 3',5'-cyclic-AMP and -GMP phosphodiesterase 11A (Homo sapiens) (Q9HCR9 whole entry, looked up): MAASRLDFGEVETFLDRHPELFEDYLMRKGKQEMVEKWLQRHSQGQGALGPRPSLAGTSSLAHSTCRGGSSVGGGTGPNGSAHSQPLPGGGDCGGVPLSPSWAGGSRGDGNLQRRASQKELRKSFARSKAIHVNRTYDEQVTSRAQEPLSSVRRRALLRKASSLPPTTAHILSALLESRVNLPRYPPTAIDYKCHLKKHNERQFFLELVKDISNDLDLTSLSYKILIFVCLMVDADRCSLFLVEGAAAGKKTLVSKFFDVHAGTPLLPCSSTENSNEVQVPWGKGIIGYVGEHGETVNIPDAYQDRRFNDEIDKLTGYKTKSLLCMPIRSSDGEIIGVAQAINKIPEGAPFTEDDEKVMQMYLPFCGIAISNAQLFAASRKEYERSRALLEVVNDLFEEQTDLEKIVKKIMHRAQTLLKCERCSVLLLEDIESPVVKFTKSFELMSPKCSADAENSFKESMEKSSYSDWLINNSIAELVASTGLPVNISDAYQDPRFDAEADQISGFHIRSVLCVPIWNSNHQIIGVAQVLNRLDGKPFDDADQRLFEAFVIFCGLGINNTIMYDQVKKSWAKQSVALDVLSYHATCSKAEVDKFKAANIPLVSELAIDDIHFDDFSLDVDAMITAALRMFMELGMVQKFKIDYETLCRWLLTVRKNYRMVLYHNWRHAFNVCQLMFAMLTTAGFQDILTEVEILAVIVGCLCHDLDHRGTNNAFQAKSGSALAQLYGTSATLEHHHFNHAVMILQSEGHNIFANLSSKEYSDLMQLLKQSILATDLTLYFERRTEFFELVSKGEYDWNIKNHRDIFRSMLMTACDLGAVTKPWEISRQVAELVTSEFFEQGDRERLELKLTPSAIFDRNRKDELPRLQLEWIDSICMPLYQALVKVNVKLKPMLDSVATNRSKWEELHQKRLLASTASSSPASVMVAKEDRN
Chain of Alpha-1A adrenergic receptor (Homo sapiens) (P35348 whole entry): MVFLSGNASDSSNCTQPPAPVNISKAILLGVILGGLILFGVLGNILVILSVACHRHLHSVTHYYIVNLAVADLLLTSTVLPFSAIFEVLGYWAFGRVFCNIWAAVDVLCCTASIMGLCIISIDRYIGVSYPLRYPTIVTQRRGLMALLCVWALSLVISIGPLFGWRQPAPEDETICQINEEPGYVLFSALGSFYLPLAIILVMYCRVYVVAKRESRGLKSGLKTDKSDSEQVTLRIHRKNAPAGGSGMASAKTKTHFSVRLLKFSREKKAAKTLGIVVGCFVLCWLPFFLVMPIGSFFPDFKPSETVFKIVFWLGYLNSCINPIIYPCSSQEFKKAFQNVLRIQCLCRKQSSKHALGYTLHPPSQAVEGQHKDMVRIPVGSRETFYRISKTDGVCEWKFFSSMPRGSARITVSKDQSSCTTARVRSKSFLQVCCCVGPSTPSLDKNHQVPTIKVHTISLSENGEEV
Chain of Delta-type opioid receptor (Homo sapiens) (P41143 whole entry): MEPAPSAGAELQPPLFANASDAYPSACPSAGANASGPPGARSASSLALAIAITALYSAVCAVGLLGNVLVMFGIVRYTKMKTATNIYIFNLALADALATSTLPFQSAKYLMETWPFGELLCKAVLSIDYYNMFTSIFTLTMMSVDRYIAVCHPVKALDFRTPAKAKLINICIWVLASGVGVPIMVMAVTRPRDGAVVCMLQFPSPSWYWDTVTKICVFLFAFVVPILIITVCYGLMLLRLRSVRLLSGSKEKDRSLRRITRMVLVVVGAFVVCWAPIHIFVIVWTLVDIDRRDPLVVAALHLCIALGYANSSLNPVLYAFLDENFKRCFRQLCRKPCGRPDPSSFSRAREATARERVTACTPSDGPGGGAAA
Chain of cGMP-inhibited 3',5'-cyclic phosphodiesterase 3B (Homo sapiens) (Q13370 whole entry, looked up): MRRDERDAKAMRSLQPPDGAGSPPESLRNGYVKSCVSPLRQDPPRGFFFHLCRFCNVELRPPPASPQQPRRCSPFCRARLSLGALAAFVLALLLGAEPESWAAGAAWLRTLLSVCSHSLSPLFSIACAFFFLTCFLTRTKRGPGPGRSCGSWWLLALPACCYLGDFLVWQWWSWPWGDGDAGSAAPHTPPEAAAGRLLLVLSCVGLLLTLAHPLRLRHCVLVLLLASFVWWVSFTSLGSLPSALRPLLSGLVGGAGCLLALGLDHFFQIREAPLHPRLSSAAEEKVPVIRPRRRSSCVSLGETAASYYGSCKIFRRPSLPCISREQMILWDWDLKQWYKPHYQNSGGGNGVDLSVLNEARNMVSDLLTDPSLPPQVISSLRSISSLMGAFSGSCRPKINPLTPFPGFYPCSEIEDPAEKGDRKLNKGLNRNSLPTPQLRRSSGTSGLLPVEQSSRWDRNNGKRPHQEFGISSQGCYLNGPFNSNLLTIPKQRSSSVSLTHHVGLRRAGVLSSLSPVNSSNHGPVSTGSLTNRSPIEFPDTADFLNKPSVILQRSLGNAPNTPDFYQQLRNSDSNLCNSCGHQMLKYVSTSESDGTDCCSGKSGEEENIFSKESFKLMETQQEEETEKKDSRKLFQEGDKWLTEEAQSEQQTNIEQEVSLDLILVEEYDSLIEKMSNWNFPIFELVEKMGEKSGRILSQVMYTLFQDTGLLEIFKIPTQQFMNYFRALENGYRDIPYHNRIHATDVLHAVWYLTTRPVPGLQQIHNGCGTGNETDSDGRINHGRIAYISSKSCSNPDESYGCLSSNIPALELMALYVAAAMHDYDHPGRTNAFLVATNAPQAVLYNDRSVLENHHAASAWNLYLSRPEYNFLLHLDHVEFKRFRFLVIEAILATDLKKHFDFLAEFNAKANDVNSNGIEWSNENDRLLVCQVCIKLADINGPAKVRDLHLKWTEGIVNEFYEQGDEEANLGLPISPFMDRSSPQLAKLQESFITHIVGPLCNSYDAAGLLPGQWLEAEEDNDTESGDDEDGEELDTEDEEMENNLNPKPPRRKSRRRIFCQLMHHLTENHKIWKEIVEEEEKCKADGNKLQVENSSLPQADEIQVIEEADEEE

inhibition [2]: < 50% | inhibition [3]: < 50% | fraction unbound [4]: 0.038 | inhibition [5]: < 50% | CLint scaled [6]: 100 mL/min/kg | inhibition [7]: < 50% | inhibition [8]: < 50% | inhibition [9]: < 50% | inhibition [10]: < 50% | inhibition [11]: < 50% | inhibition [12]: < 50% | IC50 [13]: 0.14 µM | inhibition [14]: < 50% | inhibition [15]: < 50% | inhibition [16]: < 50% | inhibition [17]: < 50% | inhibition [18]: < 50% | inhibition [19]: < 50% | inhibition [20]: < 50% | inhibition [21]: < 50% | inhibition [22]: 87% | inhibition [24]: < 50% | inhibition [25]: < 50%
Structure (SMILES): O=C(c1nc2cccnc2n1-c1ccc(Cl)c(Cl)c1)N1CC(F)(F)C1
inhibition [1]: < 50% | Activity [23]: Non-Toxic
